Earlier results in PMC3534868 (Pharmaceutical biology, 2011).
Where two headings read alike, the source gives them in different places.

Experiments:
LNCaP (prostate) = settings: LNCaP cells; ref Zhang et al., 2004
hTERT = hTERT cells; ref Zhang et al., 2004
Col-2 = Col-2 cells; ref Zhang et al., 2004
[1] = test system: KB (human oral epidermoid carcinoma); settings: KB cells; for KB IC50: ref Zhang et al., 2004
LU-1 (lung) = settings: LU-1 cells; ref Zhang et al., 2004
HUVEC = HUVEC cells; ref Zhang et al., 2004
[2] = test system: malaria parasite (chloroquine-sensitive and chloroquine-resistant strains); settings: for in vitro activities against the malaria parasites: 2005

3″-Hydroxy-4″-methoxy-4″-dehyroxy-nyasol [SLA7037-K007]
LNCaP IC50 (LNCaP (prostate)): 11.6 µg/mL
hTERT IC50 (hTERT): 0.2 µg/mL
Col-2 IC50 (Col-2): 11.7 µg/mL
KB IC50 [1]: 9.0 µg/mL
LU-1 IC50 (LU-1 (lung)): 7.2 µg/mL
HUVEC IC50 (HUVEC): 16.4 µg/mL

COc1cc([C@H](O[C@@H]2O[C@H](CO)[C@@H](O)[C@H](O)[C@H]2O)[C@H](CO)Oc2c(OC)cc(CCCO)cc2OC)ccc1O [SLA7006-K008, Rourinoside]
in vitro antimalarial activity ([2]; ref He et al., 2006): in vitro-active
W2 IC50 (P. falciparum W2; ref He et al., 2006): 1.2 µg/mL
D6 IC50 (P. falciparum D6; ref He et al., 2006): 2.1 µg/mL
KB ED50 ([1]; ref He et al., 2006): >20 µg/mL

CC1(C)CC[C@]2(C(=O)O)CC[C@]3(C)C(=CC[C@@H]4[C@@]5(C)CC[C@H](O)C(C)(C)[C@@H]5CC[C@]43C)[C@@H]2C1 [SLA7018-K003, Oleanolic acid]
W2 IC50 (P. falciparum W2; ref He et al., 2005): 2.335 ± 0.013 µg/mL
D6 IC50 (P. falciparum D6; ref He et al., 2005): 2.116 ± 0.308 µg/mL
KB ED50 ([1]; ref He et al., 2005): 21 µg/mL

C[C@H]1[C@H](C)CC[C@]2(C(=O)O)CC[C@]3(C)C(=CC[C@@H]4[C@@]5(C)CC[C@@H](O)[C@@](C)(CO)[C@@H]5CC[C@]43C)[C@H]12 [SLA7018-K008, 3α,23-Dihydroxy-urs-12-en-28-oic acid]
W2 IC50 (P. falciparum W2; ref He et al., 2005): 6.006 ± 2.581 µg/mL
D6 IC50 (P. falciparum D6; ref He et al., 2005): 4.567 ± 0.702 µg/mL
KB ED50 ([1]; ref He et al., 2005): >20 µg/mL

C[C@@H]1CC[C@@]2(OC1)O[C@H]1C[C@H]3[C@@H]4CCC5=CC(=O)CC[C@]5(C)[C@H]4C[C@@H](O)[C@]3(C)[C@@]1(O)[C@@H]2C [SLA7037-K001, Asparacosin A]
LNCaP IC50 (LNCaP (prostate)): >20 µg/mL
hTERT IC50 (hTERT): >20 µg/mL
Col-2 IC50 (Col-2): >20 µg/mL
KB IC50 [1]: 10.7 µg/mL
LU-1 IC50 (LU-1 (lung)): >20 µg/mL
HUVEC IC50 (HUVEC): >20 µg/mL

C[C@H]1CC[C@@]2(OC1)O[C@H]1C[C@H]3[C@@H]4CC[C@@H]5C[C@@H](O[C@@H]6O[C@H](CO[C@@H]7OC[C@H](O)[C@H](O)[C@H]7O)[C@@H](O[C@@H]7OC[C@H](O)[C@H](O)[C@H]7O)[C@H](O)[C@H]6O[C@@H]6O[C@H](CO)[C@@H](O)[C@H](O)[C@H]6O)CC[C@]5(C)[C@H]4CC[C@]3(C)[C@H]1[C@@H]2C [SLA7037-K003, Asparacoside]
LNCaP IC50 (LNCaP (prostate)): 10.1 µg/mL
hTERT IC50 (hTERT): 4.3 µg/mL
Col-2 IC50 (Col-2): 5.4 µg/mL
KB IC50 [1]: 4.8 µg/mL
LU-1 IC50 (LU-1 (lung)): 4.2 µg/mL
HUVEC IC50 (HUVEC): 4.1 µg/mL

COc1cc(OCC=CC#Cc2ccc(O)cc2)ccc1O [SLA7037-K004, 3′-Methoxy-asparenydiol]
LNCaP IC50 (LNCaP (prostate)): >20 µg/mL
hTERT IC50 (hTERT): 0.3 µg/mL
Col-2 IC50 (Col-2): >20 µg/mL
KB IC50 [1]: 12.0 µg/mL
LU-1 IC50 (LU-1 (lung)): 19.7 µg/mL
HUVEC IC50 (HUVEC): >20 µg/mL

C=CC(/C=C\c1ccc(O)cc1)c1ccc(O)c(OC)c1 (stereo not drawn) [SLA7037-K006, 3″-Methoxy-nyasol]
LNCaP IC50 (LNCaP (prostate)): 6.6 µg/mL
hTERT IC50 (hTERT): 1.2 µg/mL
Col-2 IC50 (Col-2): 6.3 µg/mL
KB IC50 [1]: 9.0 µg/mL
LU-1 IC50 (LU-1 (lung)): 4.5 µg/mL
HUVEC IC50 (HUVEC): 6.7 µg/mL

Oc1ccc(C#C/C=C/COc2ccc(O)cc2)cc1 [SLA7037-K010, Asparenydiol]
LNCaP IC50 (LNCaP (prostate)): >20 µg/mL
hTERT IC50 (hTERT): 0.2 µg/mL
Col-2 IC50 (Col-2): >20 µg/mL
KB IC50 [1]: 2.4 µg/mL
LU-1 IC50 (LU-1 (lung)): 19.8 µg/mL
HUVEC IC50 (HUVEC): >20 µg/mL

C=C(C)[C@@H]1CC[C@]2(C(=O)O)CC[C@]3(C)[C@H](CC[C@@H]4[C@@]5(C)CC[C@H](OC(=O)/C=C/c6ccc(O)c(O)c6)C(C)(C)[C@@H]5CC[C@]43C)[C@@H]12 [SLA7062-K001, Betulinic acid 3β-caffeate]
in vitro antimalarial activity ([2]; chloroquine-sensitive and chloroquine-resistant strains, ref Ma et al., 2008): in vitro-active
W2 IC50 (P. falciparum W2; ref Ma et al., 2008): 0.607 µg/mL
D6 IC50 (P. falciparum D6; ref Ma et al., 2008): 0.87 µg/mL
KB ED50 ([1]; ref Ma et al., 2008): 2.5 µg/mL

C=C(C)[C@@H]1CC[C@]2(C(=O)O)CC[C@]3(C)[C@H](CC[C@@H]4[C@@]5(C)CC[C@H](O)C(C)(C)[C@@H]5CC[C@]43C)[C@@H]12 [SLA7062-K001a, Betulinic acid]
W2 IC50 (P. falciparum W2; ref Ma et al., 2008): 3.776 µg/mL
D6 IC50 (P. falciparum D6; ref Ma et al., 2008): 3.696 µg/mL
KB ED50 ([1]; ref Ma et al., 2008): >40 µg/mL

C=C(C)[C@@H]1CC[C@]2(C(=O)O)CC[C@]3(C)[C@H](CC[C@@H]4[C@@]5(C)CC[C@H](OC(=O)/C=C/c6ccc(OC(C)=O)c(OC(C)=O)c6)C(C)(C)[C@@H]5CC[C@]43C)[C@@H]12 [SLA7062-K001b, Betulinic acid 3β-bisacetylcaffeate]
W2 IC50 (P. falciparum W2; ref Ma et al., 2008): 0.443 µg/mL
D6 IC50 (P. falciparum D6; ref Ma et al., 2008): 0.48 µg/mL
KB ED50 ([1]; ref Ma et al., 2008): 2.07 µg/mL

Gongroneside A [SLA7530-K001]
in vitro antimalarial activity ([2]; both strains of the malaria parasites, ref Libman et al., 2008): in vitro-active
W2 IC50 (P. falciparum W2; ref Libman et al., 2008): 2.02 µg/mL
D6 IC50 (P. falciparum D6; ref Libman et al., 2008): 2.33 µg/mL
KB ED50 ([1]; ref Libman et al., 2008): >20 µg/mL

Naucleaorine [SLA7018-K006]
in vitro activities against the malaria parasites ([2]; ref He et al.): showed in vitro activities
W2 IC50 (P. falciparum W2; ref He et al., 2005): 4.192 ± 0.008 µg/mL
D6 IC50 (P. falciparum D6; ref He et al., 2005): 3.61 ± 0.595 µg/mL
KB ED50 ([1]; ref He et al., 2005): 20 µg/mL

Pinoresinol [SLA7062-K004]
W2 IC50 (P. falciparum W2; ref Ma et al., 2008): 3.15 µg/mL
D6 IC50 (P. falciparum D6; ref Ma et al., 2008): 1.361 µg/mL
KB ED50 ([1]; ref Ma et al., 2008): >40 µg/mL

Rouremin [SLA7006-K005]
in vitro antimalarial activity ([2]; ref He et al., 2006): in vitro-active
W2 IC50 (P. falciparum W2; ref He et al., 2006): 3.5 µg/mL
D6 IC50 (P. falciparum D6; ref He et al., 2006): 4 µg/mL
KB ED50 ([1]; ref He et al., 2006): >20 µg/mL

epi-Methoxy-naucleaorine [SLA7018-K002]
in vitro activities against the malaria parasites ([2]; ref He et al.): showed in vitro activities
W2 IC50 (P. falciparum W2; ref He et al., 2005): 6.979 ± 0.008 µg/mL
D6 IC50 (P. falciparum D6; ref He et al., 2005): 6.535 ± 0.151 µg/mL
KB ED50 ([1]; ref He et al., 2005): >20 µg/mL
